Experimental data published in PMC10318527, “Utilization of dietary mixed-linkage β-glucans by the Firmicute Blautia producta” (The Journal of Biological Chemistry, 2023).

Assays:
BPGH16 mutant W362A = assay: Kinetics of BPGH16 mutant W362A (DNS assay); format: biochemical, Blautia producta ATCC 27340
Method: (§1) The residues R331, L358, E379, D381, E384, W362, and H398 of BpGH16MLG were mutated to Ala by the Q5Site-Directed Mutagenesis Kit (New England Biolabs, UK, catalogue no. E0554S). Wild-type plasmid BpGH16-pET28a(+) was used as a template, and mutagenic forward and reverse primers were developed using NEBaseChanger with subtle modifications (Table S4). A 25 μl PCR cocktail was prepared for mutating each residue. The final concentration of Q5 Hot Start High-Fidelity 2X Master Mix was 1X, each primer was at 0.5 μM, the amount of used template was 20 ng, and the rest of the volume was made up of nuclease-free water. PCR was executed using the following conditions-initial denaturation was performed at 98 °C for 1 min, for each cycle-denaturation, annealing, and extension (72 °C) were set for 10 s, 20 s, and 7 min, respectively. […] The mutant protein was then expressed as per the protocol mentioned earlier, and kinetics were performed with barley β-glucan.
(§2) Reactions were performed in 100 μl volume mixture using recombinant enzyme (final concentration at 0.1 mg/ml) in 50 mM sodium phosphate buffer (pH 5.7) at 37 °C for 1 h of incubation. […] Enzymatic assays were determined with 3,5- dinitrosalicylic acid (DNS) assay ([85]). […] Consequently, recorded the developed color spectrophotometrically at 575 nm ([85]). […]

BPGH16 mutant L358A = assay: Kinetics of BPGH16 mutant L358A (DNS assay); format: biochemical, Blautia producta ATCC 27340
Method: as §1, §2

proteome of B. producta = assay: Proteomics of B. producta grown on barley β-glucan versus glucose; format: cell-based, Blautia producta ATCC 27340; details: barley β-glucan compared to glucose
Method: B. producta ATCC 27340 was anaerobically grown at 37 °C overnight, cells were collected by centrifugation (3000g at room temperature, RT) and washed thrice with 5 ml PBS. […] The strain was grown to the mid-late exponential phase ([…] ∼ 0.5-0.6) in two biological replicates. […] The lysate was centrifuged (15,000g, 15 min at 4 °C), and the supernatant was collected. Procedures for the precipitation of protein, trypsin digestion, and analysis of generated peptides have been mentioned in the Supplementary file. […] Protein quantities were then calculated using Bradford assay. […] Consequently, trypsin digestion of protein was attained by incubating the reaction at 37°C for 16 h using 5 μg trypsin (MS grade, Promega). The next day, the reaction was quenched by adding one volume of 2% (w/v) trifluoroacetic acid, and the obtained peptides were used for mass spectrometry. Analysis of peptides was carried out as reported by Singh et al. (83). Using the manufacturer's protocol, peptides from each replicate of B. producta ATCC 27340 were initially cleaned-up using Oasis HLB 1 cc Vac cartridges (Waters). The […] analysis of each sample was performed on a quadrupole-TOF hybrid mass spectrometer (TripleTOF 6600, SCIEX) coupled to an Eksigent Nano LC-425 system. […] method was created using 93 precursor isolation windows which were defined on the basis of precursor m/z frequencies in DDA run using the SWATH Variable Window Calculator (SCIEX), with a limitation window of 5 m/z. Analysis parameters were optimized before any sample was run. Nebulizer gas and curtain gas were maintained at 20 and 25 psi, respectively.

BPGH16 mutant E384A = assay: Kinetics of BPGH16 mutant E384A (DNS assay); format: biochemical, Blautia producta ATCC 27340
Method: as §1, §2

B. producta ATCC 27340 = assay: Growth of B. producta on β-glucans; format: cell-based, Blautia producta ATCC 27340; details: minimal medium containing 1% glucan
Method: Active culture of B. producta and culture conditions were maintained following the recently reported procedure ([31]). Once B. producta grew, cells were centrifuged, and the obtained supernatant was decanted. A pellet of cells was then washed three times with phosphate-buffered saline (PBS) and washed cells were suspended in 2 ml PBS. […] The growth assessment experiments were performed for 96 h, following our recently established protocol ([82]).

BpGH16MLG (BPGH16) = assay: Michaelis-Menten kinetics of BpGH16MLG on β-glucans (DNS assay); format: biochemical, Blautia producta ATCC 27340
Method: Then, reactions were terminated by boiling for 5 min. Enzymatic assays were determined with 3,5- dinitrosalicylic acid (DNS) assay ([85]). In brief, 0.05 g Na2SO3 and 1 g DNS were mixed in a 50 ml water-containing reagent bottle and stirred about 6 h using a magnetic stirrer. After that, 200 μl phenol was added and made up to 100 ml. A working solution of DNS was prepared by adding 50 μl glucose (20% (w/v) stock) in prepared 100 ml of reagent mixtures and immediately used for experiments without adding NaOH. 80 μl DNS reagent was added to the reaction mixtures and incubated at 100 °C for 10 min, followed by ice-cooling for 10 min. Consequently, recorded the developed color spectrophotometrically at 575 nm ([85]). A standard curve generated by different concentrations of maltose was used for determining released reducing sugars in each case.

[1] = native BPGH16, DNS assay, pH 5.7, 37 °C

Barley β-glucan
kcat (BPGH16 mutant W362A): 0 s⁻¹ | kcat (BPGH16 mutant L358A): 0 s⁻¹ | abundance of Bp1313 (proteome of B. producta): approximately 5 fold | abundance of Bp1314 (proteome of B. producta): ~16 fold | expression of Bp1317 (proteome of B. producta): about 7 fold | expression of Bp1318 (proteome of B. producta): about 7 fold | up-regulation of Bp3738 (GH18) (proteome of B. producta): 5.1 fold | up-regulation of Bp4420 (GH3) (proteome of B. producta): 3.4 fold | up-regulation of Bp8539 (GH3) (proteome of B. producta): 12.4 fold | kcat (BPGH16 mutant E384A): 0 s⁻¹ | growth of B. producta on the glucan (B. producta ATCC 27340): showed growth | growth of B. producta on the glucan (B. producta ATCC 27340; listed as barley MLG): able to grow | Km (BpGH16MLG (BPGH16); BpGH16MLG with barley MLG, no unit): 0.22 ± 0.04 | kcat (BpGH16MLG (BPGH16); BpGH16MLG with barley MLG, no unit, in 1/s): 62 ± 1.23 | Km (BpGH16MLG (BPGH16); [1]): 0.22 ± 0.04 mg/mL | kcat (BpGH16MLG (BPGH16); [1]): 62 ± 1.2 s⁻¹
